Assay results as given in patent US7138361B2, “Herbicidal heterocycles” (E. I. du Pont de Nemours and Company, priority 2000, dated 2006).

What was measured:
Assay type in all cases: in vivo
Sunflower [1] = assay: Test C preemergence; details: Rate 500 g/ha, visual evaluation after 12 to 14 days
[2] = system: goosegrass (Eleusine indica); assay: Test C preemergence; details: for Plant response rating (0 to 100), Goosegrass: visual evaluation after 12 to 14 days
Method in brief: (§1)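 Preemergence: seeds sown then treated. Postemergence: plants 2–18 cm, 1- to 4-leaf. Both with surfactant-containing solvent formulation; visual injury scored 0–100 after 12–14 d.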

[3] = system: common ragweed (Ambrosia elatior); assay: Test C preemergence; details: for Plant response rating (0 to 100), Ragweed, Common: Rate 500 g/ha, visual evaluation after 12 to 14 days
Method in brief: as §1

Sunflower [4] = assay: Test C preemergence; details: Rate 125 g/ha; scale 0 to 100, 0 no effect, 100 complete control
[5] = system: yellow nutsedge (Cyperus esculentus); assay: Test C preemergence; details: for Plant response rating (0 to 100), Nutsedge: Rate 500 g/ha, visual evaluation after 12 to 14 days
Method in brief: as §1

[6] = system: lambsquarters (Chenopodium album); assay: Test C preemergence; details: for Plant response rating (0 to 100), Lambsquarters: Rate 500 g/ha, visual evaluation after 12 to 14 days
Method in brief: as §1

[7] = system: velvetleaf (Abutilon theophrasti); assay: Test C preemergence; details: for Plant response rating (0 to 100), Velvetleaf: Rate 500 g/ha, visual evaluation after 12 to 14 days
Method in brief: as §1

[8] = system: morningglory (Ipomoea hederacea); assay: Test C preemergence; details: for Plant response rating (0 to 100), Morningglory: Rate 500 g/ha, visual evaluation after 12 to 14 days
Method in brief: as §1

corn (Zea mays) [9] = assay: Test C preemergence; details: for Plant response rating (0 to 100), Corn: visual evaluation after 12 to 14 days
Method in brief: as §1

Nightshade = assay: Test C preemergence
[10] = system: johnsongrass (Sorghum halepense); assay: Test C preemergence; details: for Plant response rating (0 to 100), Johnsongrass: visual evaluation after 12 to 14 days
Method in brief: as §1

[11] = system: cocklebur (Xanthium strumarium); assay: Test B postemergence; details: 13 to 15 days
Method in brief: (§2)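 Greenhouse test: chemicals are formulated in a surfactant-containing non-phytotoxic solvent and applied either preemergence to planted seeds or postemergence to plants 2 to 18 cm tall. Response is rated visually versus controls after 13 to 15 days, 0 meaning no effect and 100 complete control.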

[12] = system: pigweed (Amaranthus retroflexus); assay: Test B postemergence; details: 13 to 15 days
Method in brief: as §2

[13] = system: giant foxtail (Setaria faberii); assay: Test B postemergence; details: 13 to 15 days
Method in brief: as §2

[14] = system: barnyardgrass (Echinochloa crus-galli); assay: Test B postemergence; details: 13 to 15 days
Method in brief: as §2

wild oat (Avena fatua) = assay: Test B postemergence; details: 13 to 15 days
Method in brief: as §2

[15] = system: crabgrass (Digitaria sanguinalis); assay: Test B postemergence; details: 13 to 15 days
Method in brief: as §2

[16] = system: wheat (Triticum aestivum); assay: Test B postemergence; details: 13 to 15 days
Method in brief: as §2

[17] = system: velvetleaf (Abutilon theophrasti); assay: Test B postemergence; details: 13 to 15 days
Method in brief: as §2

corn (Zea mays) [18] = assay: Test B postemergence; details: 13 to 15 days
Method in brief: as §2

[19] = system: Surinam grass (Brachiaria decumbens); assay: Test B postemergence; details: 13 to 15 days
Method in brief: as §2

[20] = system: morning glory (Ipomoea hederacea); assay: Test B postemergence; details: 13 to 15 days
Method in brief: as §2

[21] = Rate 125 g/ha, scale 0 to 100, 0 no effect, 100 complete control
[22] = preemergence, Rate 62 g/ha, scale 0 to 100
[23] = preemergence, Rate 250 g/ha, scale 0 to 100, 0 no effect, 100 complete control
[24] = Rate 250 g/ha, scale 0 to 100, 0 no effect, 100 complete control
[25] = Rate 125 g/ha, scale 0 (no effect) to 100 (complete control)
[26] = Rate 500 g/ha, scale 0 to 100, 0 is no effect, 100 is complete control

Compound: COc1cccc(N2CCC(n3ccc(C(C)(C)C)n3)C2=O)c1 (stereo not shown) [Compound 87]
- Plant response rating (0 to 100), Sunflower (Sunflower [1]): 30
- Plant response rating, Goosegrass [2, 21]: 100
- Plant response rating, Goosegrass [2, 22]: 100
- Plant response rating (0 to 100), Goosegrass ([2]; preemergence, Rate 250 g/ha): 100
- Plant response rating (0 to 100), Goosegrass ([2]; preemergence, Rate 500 g/ha): 100
- Plant response rating, Ragweed, Common [3, 21]: 0
- Plant response rating, Ragweed, Common [3, 22]: 0
- Plant response rating (0 to 100), Ragweed, Common ([3]; preemergence): 0
- Plant response rating, Ragweed, Common [3, 23]: 0
- Plant response rating, Sunflower (Sunflower [4]): 20
- Plant response rating, Nutsedge [5, 21]: 20
- Plant response rating, Nutsedge [5, 22]: 20
- Plant response rating (0 to 100), Nutsedge ([5]; preemergence): 20
- Plant response rating, Nutsedge [5, 23]: 20
- Plant response rating, Lambsquarters [6, 21]: 100
- Plant response rating, Lambsquarters [6, 22]: 100
- Plant response rating (0 to 100), Lambsquarters ([6]; preemergence): 100
- Plant response rating, Lambsquarters [6, 23]: 100
- Plant response rating, Velvetleaf [7, 21]: 10
- Plant response rating, Velvetleaf [7, 22]: 10
- Plant response rating (0 to 100), Velvetleaf ([7]; preemergence): 20
- Plant response rating, Velvetleaf [7, 23]: 10
- Plant response rating, Morningglory [8, 21]: 0
- Plant response rating, Morningglory [8, 22]: 0
- Plant response rating (0 to 100), Morningglory ([8]; preemergence): 0
- Plant response rating, Morningglory [8, 23]: 0
- Plant response rating, Corn (corn (Zea mays) [9]; [21]): 70
- Plant response rating, Corn (corn (Zea mays) [9]; [22]): 40
- Plant response rating (0 to 100), Corn (corn (Zea mays) [9]; preemergence, Rate 250 g/ha): 70
- Plant response rating (0 to 100), Corn (corn (Zea mays) [9]; preemergence, Rate 500 g/ha): 80
- Plant response rating, Nightshade (Nightshade; Rate 62 g/ha, scale 0 to 100): 0
- Plant response rating, Nightshade (Nightshade; [21]): 10
- Plant response rating, Nightshade (Nightshade; [24]): 60
- Plant response rating, Johnsongrass [10, 21]: 90
- Plant response rating, Johnsongrass [10, 22]: 90
- Plant response rating (0 to 100), Johnsongrass ([10]; preemergence, Rate 250 g/ha): 100
- Plant response rating (0 to 100), Johnsongrass ([10]; preemergence, Rate 500 g/ha): 100
- Plant response rating, Cocklebur [11, 25]: 0
- Plant response rating, Cocklebur [11, 26]: 0
- Plant response rating, Pigweed [12, 25]: 0
- Plant response rating, Pigweed [12, 26]: 40
- Plant response rating, Foxtail, Giant [13, 25]: 0
- Plant response rating, Foxtail, Giant [13, 26]: 0
- Plant response rating, Barnyardgrass [14, 25]: 0
- Plant response rating, Barnyardgrass [14, 26]: 30
- Plant response rating, Wild Oat (wild oat (Avena fatua); [25]): 0
- Plant response rating, Wild Oat (wild oat (Avena fatua); [26]): 0
- Plant response rating, Crabgrass [15, 25]: 0
- Plant response rating, Crabgrass [15, 26]: 0
- Plant response rating, Wheat [16, 25]: 0
- Plant response rating, Wheat [16, 26]: 0
- Plant response rating, Velvetleaf [17, 25]: 0
- Plant response rating, Velvetleaf [17, 26]: 0
- Plant response rating, Corn (corn (Zea mays) [18]; [25]): 0
- Plant response rating, Corn (corn (Zea mays) [18]; [26]): 0
- Plant response rating, Surinam grass [19, 25]: 0
- Plant response rating, Surinam grass [19, 26]: 0
- Plant response rating, Morningglory [20, 25]: 0
- Plant response rating, Morningglory [20, 26]: 0

Compound: CC(C)(C)c1ccn(C2CCN(c3cccc(I)c3)C2=O)n1 (stereo not shown) [Compound 88]
- Plant response rating (0 to 100), Sunflower (Sunflower [1]): 20
- Plant response rating, Goosegrass [2, 21]: 100
- Plant response rating, Goosegrass [2, 22]: 100
- Plant response rating (0 to 100), Goosegrass ([2]; preemergence, Rate 500 g/ha): 100
- Plant response rating, Goosegrass [2, 23]: 100
- Plant response rating, Ragweed, Common [3, 21]: 0
- Plant response rating, Ragweed, Common [3, 22]: 0
- Plant response rating (0 to 100), Ragweed, Common ([3]; preemergence): 20
- Plant response rating, Ragweed, Common [3, 23]: 0
- Plant response rating, Sunflower (Sunflower [4]): 40
- Plant response rating, Nutsedge [5, 21]: 0
- Plant response rating, Nutsedge [5, 22]: 0
- Plant response rating (0 to 100), Nutsedge ([5]; preemergence): 10
- Plant response rating, Nutsedge [5, 23]: 0
- Plant response rating, Lambsquarters [6, 21]: 100
- Plant response rating, Lambsquarters [6, 22]: 100
- Plant response rating (0 to 100), Lambsquarters ([6]; preemergence): 100
- Plant response rating, Lambsquarters [6, 23]: 100
- Plant response rating, Velvetleaf [7, 21]: 10
- Plant response rating, Velvetleaf [7, 22]: 0
- Plant response rating (0 to 100), Velvetleaf ([7]; preemergence): 20
- Plant response rating, Velvetleaf [7, 23]: 10
- Plant response rating, Morningglory [8, 21]: 10
- Plant response rating, Morningglory [8, 22]: 10
- Plant response rating (0 to 100), Morningglory ([8]; preemergence): 30
- Plant response rating, Morningglory [8, 23]: 30
- Plant response rating, Corn (corn (Zea mays) [9]; [21]): 10
- Plant response rating, Corn (corn (Zea mays) [9]; [22]): 0
- Plant response rating (0 to 100), Corn (corn (Zea mays) [9]; preemergence, Rate 500 g/ha): 100
- Plant response rating, Corn (corn (Zea mays) [9]; [23]): 70
- Plant response rating, Nightshade (Nightshade; Rate 62 g/ha, scale 0 to 100): 30
- Plant response rating, Nightshade (Nightshade; [21]): 20
- Plant response rating, Nightshade (Nightshade; [24]): 80
- Plant response rating, Johnsongrass [10, 21]: 10
- Plant response rating, Johnsongrass [10, 22]: 10
- Plant response rating (0 to 100), Johnsongrass ([10]; preemergence, Rate 500 g/ha): 100
- Plant response rating, Johnsongrass [10, 23]: 40
- Plant response rating, Cocklebur [11, 25]: 20
- Plant response rating, Cocklebur [11, 26]: 30
- Plant response rating, Pigweed [12, 25]: 90
- Plant response rating, Pigweed [12, 26]: 100
- Plant response rating, Foxtail, Giant [13, 25]: 20
- Plant response rating, Foxtail, Giant [13, 26]: 60
- Plant response rating, Barnyardgrass [14, 25]: 0
- Plant response rating, Barnyardgrass [14, 26]: 90
- Plant response rating, Wild Oat (wild oat (Avena fatua); [25]): 0
- Plant response rating, Wild Oat (wild oat (Avena fatua); [26]): 0
- Plant response rating, Crabgrass [15, 25]: 0
- Plant response rating, Crabgrass [15, 26]: 0
- Plant response rating, Wheat [16, 25]: 0
- Plant response rating, Wheat [16, 26]: 30
- Plant response rating, Velvetleaf [17, 25]: 0
- Plant response rating, Velvetleaf [17, 26]: 40
- Plant response rating, Corn (corn (Zea mays) [18]; [25]): 0
- Plant response rating, Corn (corn (Zea mays) [18]; [26]): 10
- Plant response rating, Surinam grass [19, 25]: 0
- Plant response rating, Surinam grass [19, 26]: 0
- Plant response rating, Morningglory [20, 25]: 20
- Plant response rating, Morningglory [20, 26]: 70
